Source: article PMC5084075 (ACS Central Science, 2016)
Read-outs that look alike come from different tables or passages of the source.

How the values were obtained:
HEK293 = experiment: cells; design: cytotoxicity counter-screen on HEK293 cells; details: Homo sapiens, cytotoxicity
Method: (§1) To confirm the promise of the two starting points OSM-S-5 and -6, they were evaluated against 3D7 (drug-sensitive) and K1 (chloroquine resistant) strains of Plasmodium falciparum in a whole cell assay and against HEK-293 cells as a cytotoxicity marker (Table SB1, Biological Protocols; tables with the prefix “SB” may be found in the Supporting Information). Biological data may be browsed in a static data set taken as a snapshot for this paper (Data Sets S1 (Excel), S2 (SDF)), online in a database constructed through periodic batch uploads,[68] or in a “living database” to which may be added future data;[69] the latter may be visualized in a web browser[70] using an open source system that was recently deployed in the Wikipedia Chemical Structure Explorer,[71] or the data may be downloaded and visualized offline with proprietary (Figure S4)[72] or open source (Figure S5)[73] tools). The evaluation was performed in three different institutions using different assays and widely employed controls; controls are important to assess reproducibility and interassay variability[74] but also to minimize possible bias in evaluating compounds where there are pre-existing data from other researchers already in the public domain (Figure S6).[75]

PfDHODH [1] = biological target: T1, PfDHODH (Plasmodium falciparum, UniProt Q08210); experiment: biochemical; design: PfDHODH enzyme inhibition IC50; details: read-out: DHODH
T1 sequence (Q08210 1-569): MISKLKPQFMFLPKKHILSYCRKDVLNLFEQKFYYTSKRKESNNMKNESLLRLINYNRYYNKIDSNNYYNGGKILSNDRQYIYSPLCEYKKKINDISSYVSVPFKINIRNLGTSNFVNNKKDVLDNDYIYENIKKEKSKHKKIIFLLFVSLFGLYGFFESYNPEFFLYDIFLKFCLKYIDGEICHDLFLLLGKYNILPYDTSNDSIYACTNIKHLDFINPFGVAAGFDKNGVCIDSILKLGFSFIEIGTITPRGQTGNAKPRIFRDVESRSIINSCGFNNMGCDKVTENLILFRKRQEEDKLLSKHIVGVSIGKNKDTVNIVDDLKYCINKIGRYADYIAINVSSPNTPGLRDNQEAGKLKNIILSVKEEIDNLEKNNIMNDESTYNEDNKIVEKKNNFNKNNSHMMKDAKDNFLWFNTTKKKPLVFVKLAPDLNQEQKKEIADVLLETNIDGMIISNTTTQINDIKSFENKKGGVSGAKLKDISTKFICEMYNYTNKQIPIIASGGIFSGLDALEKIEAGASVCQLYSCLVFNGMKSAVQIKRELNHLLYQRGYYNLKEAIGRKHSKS
Description: (§2) The potency of the near neighbor set led to an in silico target prediction study being performed on OSM-S-39 (Text S11). The method employed a naive Bayes statistical model identifying molecular structural features of small molecules with protein targets, using the ChEMBL database. Similar statistical approaches based on known activities of compounds have been successfully applied to identify targets of antitubercular compounds.[112]−[114] A total of 1,287 proteins were included for which at least 50 active compounds were known with activities <10 μM, with the other compounds in the database comprising the inactives. After the OSM compounds were scored against each target, the scores obtained were standardized by comparison with scores obtained through comparison with a random set of >10K compounds. The prediction list was culled for proteins relevant to malaria (3D7 proteome), and the analysis gave as the most likely candidate targets, in order of significance, carboxy-terminal domain RNA polymerase II polypeptide A small phosphatase 1 (Q8I3U9), dihydroorotate dehydrogenase (DHODH, Q08210), SUMO-activating enzyme subunit 2 (Q8I553) and 1 (Q8IHS2), and cyclin-dependent kinase 1 (P61075). […] A line of inquiry remaining open is the equivalent assays against the other targets identified in the in silico prediction.

[2] = biological target: T2, hERG (human ether-à-go-go-related gene ion channel) (Homo sapiens, UniProt Q12809); experiment: cell-based; design: hERG channel inhibition counterscreen; details: read-out: hERG pIC50 (converted)
T2 construct: gene KCNH2
T2 sequence (Q12809 whole entry): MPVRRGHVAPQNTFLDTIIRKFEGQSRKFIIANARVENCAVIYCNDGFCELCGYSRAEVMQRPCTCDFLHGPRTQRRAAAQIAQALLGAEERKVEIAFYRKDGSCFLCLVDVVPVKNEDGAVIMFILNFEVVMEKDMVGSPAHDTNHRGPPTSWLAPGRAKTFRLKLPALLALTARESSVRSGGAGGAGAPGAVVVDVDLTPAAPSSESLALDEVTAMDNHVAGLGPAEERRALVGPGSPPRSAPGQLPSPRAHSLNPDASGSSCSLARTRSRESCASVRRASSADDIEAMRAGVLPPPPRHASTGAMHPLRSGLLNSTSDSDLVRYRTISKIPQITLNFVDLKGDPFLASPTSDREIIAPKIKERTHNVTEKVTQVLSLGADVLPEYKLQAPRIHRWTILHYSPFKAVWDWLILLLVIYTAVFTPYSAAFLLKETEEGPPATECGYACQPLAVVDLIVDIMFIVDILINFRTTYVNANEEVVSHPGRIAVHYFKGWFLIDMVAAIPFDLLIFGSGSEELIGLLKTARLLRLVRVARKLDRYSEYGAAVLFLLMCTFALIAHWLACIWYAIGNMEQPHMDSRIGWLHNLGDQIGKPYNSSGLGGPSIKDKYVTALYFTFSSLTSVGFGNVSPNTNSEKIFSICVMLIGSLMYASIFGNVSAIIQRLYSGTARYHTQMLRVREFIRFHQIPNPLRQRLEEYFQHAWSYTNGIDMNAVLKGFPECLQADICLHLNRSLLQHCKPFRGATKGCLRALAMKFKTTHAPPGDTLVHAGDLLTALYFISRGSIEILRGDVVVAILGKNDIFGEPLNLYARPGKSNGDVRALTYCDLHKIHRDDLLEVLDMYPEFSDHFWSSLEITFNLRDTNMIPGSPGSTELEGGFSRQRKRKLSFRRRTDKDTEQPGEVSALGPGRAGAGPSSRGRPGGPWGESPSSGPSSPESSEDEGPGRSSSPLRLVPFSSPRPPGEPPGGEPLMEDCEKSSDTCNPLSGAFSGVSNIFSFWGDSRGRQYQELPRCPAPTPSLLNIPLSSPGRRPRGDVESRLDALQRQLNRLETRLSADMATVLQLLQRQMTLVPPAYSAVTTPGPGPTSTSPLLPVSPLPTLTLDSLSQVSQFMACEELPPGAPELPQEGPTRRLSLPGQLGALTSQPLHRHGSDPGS
Description: There is increasing awareness of the importance for drug candidates of inhibition of hERG (the human ether-à-go-go-related gene ion channel), which is sensitive to blockade by many drug-like structures. Such blockage has led to a number of prominent postmarketing withdrawals.[103] Regulators are sensitive to any hERG activity, and a hERG counterscreen is often now run early in hit characterization and series prioritization.

[3] = system: T3, Plasmodium falciparum 3D7; experiment: microbe, parasite or virus in culture; design: species or system P. falciparum blood stage culture; whole-cell asexual blood stage P. falciparum growth inhibition; details: Avery assay, read-out: 3D7 / IC50nM
T3 construct: 3D7
Method: as §1

[4] = system: T4, Plasmodium falciparum K1 (chloroquine resistant); experiment: microbe, parasite or virus in culture; design: species or system P. falciparum blood stage culture; whole-cell asexual blood stage P. falciparum growth inhibition
T4 construct: K1
Method: as §1

in vitro [5] = experiment: in vitro; design: cytotoxicity counter-screen on HEK293 cells; details: human, hek293 cells; read-out: HEK 293 / IC50nM
Method: as §1

[6] = system: Plasmodium falciparum late stage (IV-V) gametocytes; experiment: microbe, parasite or virus in culture; design: species or system P. falciparum gametocytes; late stage (IV-V) gametocyte viability assay; details: 96 h, read-out: Late Stage Gametocyte (Avery)
Method: There are relatively few compounds effective against the gametocyte stage of the parasite,[12],[13] though such compounds are important in the prevention of disease transmission. Four compounds found to be active in the asexual assay were evaluated against late stage (IV–V) gametocytes. […] The discrepancy in the data arising from these two gametocyte assays may arise from the slightly different cell biology assayed (stage IV/V gametocytes vs stage V mature gametocytes) or most likely is a function of the relative compound exposure times (96 h vs 24 h).

in vitro [7] = experiment: in vitro; design: HepG2 cytotoxicity beside the liver stage assay; details: human, hepg2 cells
Description: (§3) Of particular note is the striking potency of the nontoxic compound OSM-S-38, which may at this level provide protection from malaria to people who have been treated with the compound after an infectious bite.

[8] = system: Plasmodium falciparum mature stage V gametocytes (DGFA); experiment: microbe, parasite or virus in culture; design: dual gamete formation assay, inhibition of male and female gamete formation; details: 24 h
Method: The discrepancy in the data arising from these two gametocyte assays may arise from the slightly different cell biology assayed (stage IV/V gametocytes vs stage V mature gametocytes) or most likely is a function of the relative compound exposure times (96 h vs 24 h).

[9] = system: Plasmodium falciparum Pfal (strain not named in column head); experiment: microbe, parasite or virus in culture; design: species or system P. falciparum blood stage culture; whole-cell asexual blood stage P. falciparum growth inhibition
Method: as §1

[10] = system: T5, Plasmodium falciparum Pfal (3D7); experiment: microbe, parasite or virus in culture; design: species or system erythrocytes; P. falciparum asexual blood-stage whole-cell growth inhibition, IC50; details: 3D7, Erythrocyte, lab named in column head
T5 construct: 3D7
Method: as §1

[11] = system: T6, Plasmodium falciparum Pfal (K1); experiment: microbe, parasite or virus in culture; design: species or system erythrocytes; P. falciparum asexual blood-stage whole-cell growth inhibition, IC50; details: K1, Erythrocyte, lab named in column head
T6 construct: K1
Method: as §1

in vitro [12] = experiment: in vitro; design: stability in mouse plasma; details: plasma; mouse plasma; read-out: t1/2 plasma Mouse
Method: (§4) Representative compounds from both subseries were evaluated in an oral in vivo mouse trial (Data Set S22). The original starting points OSM-S-5 and -6 (Figure 2) were chosen along with NN representative OSM-S-35 (Figure 4). […] It is plausible that at least some of the arylpyrrole ester compounds would be degraded by general hydrolysis during absorption, and this could explain their inactivity in the mouse model despite their more favorable (although still high) cLogP values. […] Esterase activity is higher in rodents than in other species,[102] as confirmed by using p-nitrophenol acetate as a control compound in this assay.

in vitro [13] = experiment: in vitro; design: plasma stability, half-life and per cent remaining; details: plasma; plasma Mouse; read-out: t1/2 plasma Mouse
Method: as §4

PfDHODH [14] = biological target: T1, PfDHODH; experiment: biochemical; design: PfDHODH enzyme inhibition IC50; details: read-out: >50
PfDHODH [15] = biological target: T1, PfDHODH; experiment: biochemical; design: PfDHODH enzyme inhibition assay, IC50; details: read-out: DHODH
Description: as §2

in vitro [16] = experiment: in vitro; design: metabolic stability in mouse liver microsomes, LC-MS, NADPH, 0.4 mg/mL protein; details: liver microsomes, mouse liver microsomes
Method: (§5) The two original GSK hits (OSM-S-5 and -6) and six NN compounds were evaluated for their kinetic solubility in phosphate buffer and their metabolic stability in human liver microsomes (Table SB5, Data Sets S20 and S21).

in vitro [17] = experiment: in vitro; design: metabolic stability in human liver microsomes, LC-MS, NADPH, 0.4 mg/mL protein; details: liver microsomes, human liver microsomes
Method: as §5

[18] = system: Plasmodium berghei Pb Liver Stage; experiment: microbe, parasite or virus in culture; design: liver stage assay, sporozoites in liver cells; details: HepG2
Description: as §3

[19] = system: Plasmodium berghei Pb Liver Stage; experiment: microbe, parasite or virus in culture; design: P. berghei sporozoite liver stage development inhibition, IC50; details: HepG2
Description: as §3

in vitro [20] = experiment: in vitro; design: microsomal stability with NADPH, LC-MS, half-life and CLint; details: human, liver microsomes, HLM
Method: as §5

[21] = Avery assay, read-out: K1 / IC50nM

## Cc1cc(/C=C2\SC(=Nc3ccccc3)NC2=O)c(C)n1-c1ccccc1 [OSM-S-35]
HEK293
  inhibition at 40 µM: 57%
PfDHODH [1]
  IC50: > 50000 nM
[2]
  IC50: > 31600 nM

## CCc1nc(N)nc(N)c1-c1ccc(Cl)cc1 [Pyrimethamine]
[3]
  IC50: 11 nM
[4]; [21]
  IC50: 11900 nM
In vitro [5]
  CC50: 13900 nM

## Cc1cc(/C=C2\S/C(=N\c3ccccc3)NC2=O)c(C)n1-c1ccc(C(F)(F)F)cc1 [OSM-S-38]
[6]
  IC50: 4 nM
In vitro [7]
  CC50: > 50000 nM
PfDHODH [1]
  IC50: > 50000 nM
[8]; female gametocytes
  inhibition at 1 µM: 20.5%
[8]; male gametocytes
  inhibition at 1 µM: 26.5%

## Cc1cc(C(=O)OCC(N)=O)c(C)n1-c1ccc(F)cc1 [OSM-S-5]
[4]; Batra assay, read-out: Pfal (K1) IC50 (Batra)
  IC50: 641 nM
[9]; Batra assay
  IC50: 581 nM
[10]; read-out: Pfal IC50 (Batra)
  IC50: 581 nM
[11]; read-out: Pfal (K1) IC50 (Batra)
  IC50: 641 nM
PfDHODH [1]
  IC50: > 50000 nM
[2]
  IC50: > 31600 nM
In vitro [12]
  half-life: 1.9 h
In vitro [13]
  half-life: 1.9 h
[8]; female gametocytes
  inhibition at 1 µM: 13.5%
[8]; male gametocytes
  inhibition at 1 µM: 5.1%

## COc1ccc(-n2ccnc2SCC(=O)Nc2cc(C(F)(F)F)ccc2Cl)c(OC)c1 [TCMDC-123822]
PfDHODH [14]
  IC50: 48.2 nM

## Cc1cc(/C=C2\S/C(=N\c3ccccc3)NC2=O)c(C)n1-c1cc(C(F)(F)F)cc(C(F)(F)F)c1 [OSM-S-39]
[6]
  IC50: 2.6 nM
PfDHODH [1]
  IC50: > 50000 nM
[8]; female gametocytes
  inhibition at 1 µM: 31.3%
[8]; male gametocytes
  inhibition at 1 µM: 36.1%

## CN(Cc1cnc2nc(N)nc(N)c2n1)c1ccc(C(=O)N[C@@H](CCC(=O)O)C(=O)O)cc1 [Methotrexate]
[3]
  IC50: 25.8 nM
[4]; [21]
  IC50: 25 nM
In vitro [5]
  CC50: 11.8 nM

## CC(C)=CCC1=C(O)C(=O)c2ccccc2C1=O [Lapachol]
PfDHODH [14]
  IC50: > 100000 nM

## Cc1cc(/C=C2\SC(=Nc3ccccc3)N(CC#N)C2=O)c(C)n1-c1ccc(C(F)(F)F)cc1 [OSM-S-42]
PfDHODH [15]
  IC50: > 50000 nM

## COc1ccc(-n2c(C)cc(/C=C3\SC(=Nc4ccccc4)NC3=O)c2C)cc1 [OSM-S-111]
In vitro [16]; read-out: 0.4 / CLint, in vitro / (mL/min/mg protein)
  microsomal CLint: 0.0371 mL/min/mg
In vitro [16]; read-out: Protein Conc. (mg/mL): / Degradation half-life /
  half-life: 0.777 h
In vitro [17]; read-out: CLint HLM (Monash)
  microsomal CLint: 8 µL/min/mg
In vitro [17]; read-out: t1/2 HLM (Monash)
  half-life: 3.45 h
[4]; Guy assay, read-out: Pfal (K1) IC50 (Guy)
  IC50: 204 nM
[9]; Guy assay
  IC50: 147 nM
[10]; read-out: Pfal IC50 (Guy)
  IC50: 147 nM
[11]; read-out: Pfal (K1) IC50 (Guy)
  IC50: 204 nM
HEK293
  inhibition at 40 µM: 32%
[6]
  IC50: 686 nM
[18]
  IC50: 345 nM
In vitro [7]
  CC50: 4390 nM
[19]
  IC50: 345 nM
In vitro [20]; read-out: CLint HLM (Monash)
  microsomal CLint: 8 µL/min/mg
In vitro [20]; read-out: t1/2 HLM (Monash)
  half-life: 3.45 h
[8]; male gametocytes
  inhibition at 1 µM: 21.1%

## COc1ccc2nc3cc(Cl)ccc3c(Nc3cc(CN4CCCC4)c(O)c(CN4CCCC4)c3)c2n1 [Pyronaridine]
[3]
  IC50: 15.2 nM
[4]; [21]
  IC50: 21.3 nM
In vitro [5]
  CC50: 7700 nM

## Cc1cc(/C=C2\SC(=Nc3ccccc3)N(c3ccccc3)C2=O)c(C)n1-c1ccc(C(F)(F)F)cc1 [OSM-S-52]
PfDHODH [15]
  IC50: > 50000 nM

## Cc1cc(/C=C2\SC(=Nc3ccccc3)N(C3CCCC3)C2=O)c(C)n1-c1ccc(C(F)(F)F)cc1 [OSM-S-54]
PfDHODH [15]
  IC50: > 50000 nM

## CC(=O)N(C1=NC(=O)/C(=C/c2cc(C)n(-c3ccc(F)cc3)c2C)S1)c1ccccc1 [OSM-S-9]
[6]
  IC50: 28 nM
PfDHODH [1]
  IC50: > 50000 nM
